Source: ChEMBL document CHEMBL1135753, “Characterization of orally active nonpeptide vasopressin V(2) receptor agonist. Synthesis and biological evaluation of both the (5R)- and (5S)-enantioisomers of 2-[1-(2-Chloro-4-pyrrolidin-1-yl-benzoyl)-2,3,4,5-tetrahydro-1H-1-benzazepin- 5-yl]-N-isopropylacetamide” (J Med Chem, 2002)

What was measured:
Vasopressin V2 receptor [1] = target: T1, Vasopressin V2 receptor (Homo sapiens, UniProt P30518); experiment: Percentage of maximal cAMP accumulation at a concentration of 10e-4 M was done in HeLa cells expressing the human Vasopressin V2 receptor; type: functional, cell-based
T1 sequence (P30518 whole entry): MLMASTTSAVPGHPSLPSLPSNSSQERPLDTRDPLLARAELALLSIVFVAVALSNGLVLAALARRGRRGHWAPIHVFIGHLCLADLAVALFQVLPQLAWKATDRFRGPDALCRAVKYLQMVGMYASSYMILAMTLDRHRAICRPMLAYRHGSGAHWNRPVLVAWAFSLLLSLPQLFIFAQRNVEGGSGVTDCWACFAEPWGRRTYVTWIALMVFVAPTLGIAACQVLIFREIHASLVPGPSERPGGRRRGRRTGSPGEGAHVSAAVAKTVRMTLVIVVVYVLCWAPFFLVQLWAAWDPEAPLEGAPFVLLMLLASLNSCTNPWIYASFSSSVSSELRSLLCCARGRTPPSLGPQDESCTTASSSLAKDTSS

Vasopressin V2 receptor [2] = target: T1, Vasopressin V2 receptor; experiment: Binding affinity against human Vasopressin V2 receptor expressed in HeLa cells was determined; type: cell-based
Vasopressin V2 receptor [3] = target: Vasopressin V2 receptor (Rattus norvegicus, UniProt Q00788); experiment: Binding affinity against Vasopressin V2 receptor was determined in Brattleboro rats
Vasopressin V2 receptor (Rattus norvegicus, UniProt Q00788), sequence (Q00788 whole entry): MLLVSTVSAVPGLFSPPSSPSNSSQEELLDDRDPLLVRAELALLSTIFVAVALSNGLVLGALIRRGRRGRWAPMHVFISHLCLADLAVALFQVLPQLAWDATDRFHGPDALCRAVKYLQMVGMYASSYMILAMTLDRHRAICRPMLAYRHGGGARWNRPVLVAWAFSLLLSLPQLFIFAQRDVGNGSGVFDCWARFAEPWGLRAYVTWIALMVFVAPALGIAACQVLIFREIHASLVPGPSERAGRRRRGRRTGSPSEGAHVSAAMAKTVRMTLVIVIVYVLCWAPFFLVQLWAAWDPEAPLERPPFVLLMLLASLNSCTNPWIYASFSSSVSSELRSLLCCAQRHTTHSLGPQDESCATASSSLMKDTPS

Accumulation (Vasopressin V2 receptor [1])	IC50 (Vasopressin V2 receptor [2])	IC50 (Vasopressin V2 receptor [3])	SMILES
22%	980 nM	390 nM	CC(C)NC(=O)C[C@@H]1CCCN(C(=O)c2ccc(N3CCCC3)cc2Cl)c2ccccc21
–	330 nM	230 nM	CC(C)NC(=O)C[C@H]1CCCN(C(=O)c2ccc(N3CCCC3)cc2Cl)c2ccccc21
